Results reported in US12391737B2, “Soluble NPY2 receptor agonists” (Boehringer Ingelheim International GmbH, priority 2020, dated 2025).
*1 amine or outer side, *2 acyl side, *3 side chain or, on linkers, in order; H or OH if unused. Where a SMILES comes first, the peptide text is derived from it. Side-chain parts run from the residue outwards. The star is where a group is joined. C18 diacid = O=C(O)CCCCCCCCCCCCCCCCC(=O)*; γGlu = O=C(O)[C@H](CCC(=O)[*:2])N[*:1]; Isovaleryl = CC(C)CC(=O)*; Ahx = NCCCCCC(=O)O

Experiments:
Solubility determination = settings: for Sol6: pH 6; for Sol7: pH 7
In short: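 Sample: TFA-salt peptide at 10 mg/ml target in 0.1 M Na diphosphate, pH 6.4 or 7.0, shaken 2 h RT, filtered, diluted to 1 mg/ml.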

[1] = molecular target: T1, Human Neuropeptide Y2 Receptor (Homo sapiens, UniProt P49146); assay: Radioligand binding competition assay (RLB); settings: Table 3, 125I-PYY(1-36) competition; read-out: Ki
T1 construct: purchased CHEMICON HTS066M
T1 sequence (P49146 1-381): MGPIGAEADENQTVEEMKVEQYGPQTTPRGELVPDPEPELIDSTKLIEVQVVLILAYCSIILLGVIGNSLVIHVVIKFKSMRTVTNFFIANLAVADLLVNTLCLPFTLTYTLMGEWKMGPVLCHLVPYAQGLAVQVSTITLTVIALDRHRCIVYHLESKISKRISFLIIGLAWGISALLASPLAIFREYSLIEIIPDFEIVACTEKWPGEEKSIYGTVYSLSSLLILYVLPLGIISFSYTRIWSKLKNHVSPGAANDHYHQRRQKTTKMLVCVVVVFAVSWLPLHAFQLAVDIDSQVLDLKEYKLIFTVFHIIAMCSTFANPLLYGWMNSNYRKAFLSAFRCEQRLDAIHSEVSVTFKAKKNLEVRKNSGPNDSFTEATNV
In short: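 Peptides were serially diluted from 1 mM DMSO stocks and competed for radioligand binding to receptor membranes (0.5 μg/well) over 2 h at room temperature, pH 7.4 HEPES buffer. Bound radioactivity on filters was counted by scintillation, and IC50 was derived by nonlinear regression.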

Row | SMILES | Sol6 (Solubility determination) [mg/mL] | Sol7 (Solubility determination) [mg/mL] | Ki [1] [nM]
1 | CC[C@H](C)[C@H](NC(=O)[C@H](CCC(=O)O)NC(=O)[C@H](CCC(=O)O)NC(=O)[C@@H]1CCCN1C(=O)[C@H](C)NC(=O)[C@H](C)NC(=O)[C@H](CC(=O)O)NC(=O)[C@H](CCC(=O)O)NC(=O)[C@H](CCC(=O)O)NC(=O)[C@@H]1CCCN1C(=O)[C@H](CCCCNC(=O)CCCCCNC(=O)CC[C@H](NC(=O)CCCCCCCCCCCCCCCCC(=O)O)C(=O)O)NC(=O)[C@H](CCC(=O)O)NC(=O)[C@@H]1CCCN1C(=O)[C@H](C)NC(=O)CC(C)C)C(=O)N[C@@H](CCC(N)=O)C(=O)N[C@@H](CCCNC(=N)N)C(=O)N[C@@H](Cc1ccc(O)cc1)C(=O)N[C@@H](Cc1ccc(O)cc1)C(=O)N[C@H](C(=O)N[C@@H](CO)C(=O)N[C@@H](CC(C)C)C(=O)N[C@@H](CCCNC(=N)N)C(=O)N[C@@H](Cc1c[nH]cn1)C(=O)N[C@@H](Cc1ccc(O)cc1)C(=O)N[C@@H](Cc1ccc(O)cc1)C(=O)N[C@@H](CC(N)=O)C(=O)N[C@@H](Cc1c[nH]c2ccccc12)C(=O)N[C@@H](CC(C)C)C(=O)N[C@H](C(=O)N[C@@H](CCCNC(=N)N)C(=O)N[C@@H](CCC(N)=O)C(=O)N[C@@H](CCCNC(=N)N)C(=O)N[C@@H](Cc1ccc(O)cc1)C(N)=O)[C@@H](C)O)C(C)C [Compound 170, N{alpha-4}-(3-methylbutanoyl)-N{epsilon-7}-(6-[(4S)-4-carboxy-4-(17-carboxyheptadecanamido)butanamido]hexanoyl)-[4A,7K,9E,13A,17I,18Q,22V,28Y,30W,31L]-hPYY(4-36)] | >10.0 | 10.0 | 2.28
2 | CC(C)CC(=O)N[C@@H](C)C(=O)N1CCC[C@H]1C(=O)N[C@@H](CCC(=O)O)C(=O)N[C@@H](CCCCNC(=O)CCCCCNC(=O)CC[C@H](NC(=O)CCCCCCCCCCCCCCCCC(=O)O)C(=O)O)C(=O)N1CCC[C@H]1C(=O)N[C@@H](CCC(=O)O)C(=O)N[C@@H](C)C(=O)N[C@@H](CC(=O)O)C(=O)N[C@@H](C)C(=O)N[C@@H](CO)C(=O)N1CCC[C@H]1C(=O)N[C@@H](CCC(=O)O)C(=O)N[C@@H](CCC(=O)O)C(=O)N[C@@H](CC(C)C)C(=O)N[C@@H](CCC(N)=O)C(=O)N[C@@H](CCCNC(=N)N)C(=O)N[C@@H](Cc1ccc(O)cc1)C(=O)N[C@@H](Cc1ccc(O)cc1)C(=O)N[C@H](C(=O)N[C@@H](CCC(=O)O)C(=O)N[C@@H](CC(C)C)C(=O)N[C@@H](CCCNC(=N)N)C(=O)N[C@@H](Cc1c[nH]cn1)C(=O)N[C@@H](Cc1ccc(O)cc1)C(=O)N[C@@H](Cc1ccc(O)cc1)C(=O)N[C@@H](CC(N)=O)C(=O)N[C@@H](Cc1c[nH]c2ccccc12)C(=O)N[C@@H](CC(C)C)C(=O)N[C@H](C(=O)N[C@@H](CCCNC(=N)N)C(=O)N[C@@H](CCC(N)=O)C(=O)N[C@@H](CCCNC(=N)N)C(=O)N[C@@H](Cc1ccc(O)cc1)C(N)=O)[C@@H](C)O)C(C)C [Compound 171, N{alpha-4}-(3-methylbutanoyl)-N{epsilon-7}-(6-[(4S)-4-carboxy-4-(17-carboxyheptadecanamido)butanamido]hexanoyl)-[4A,7K,9E,10A,18Q,22V,23E,28Y,30W,31L]-hPYY(4-36)] | 10.0 | 10.0 | 2.83
3 | CC(C)CC(=O)N[C@@H](C)C(=O)N1CCC[C@H]1C(=O)N[C@@H](CCC(=O)O)C(=O)N[C@@H](CCCCNC(=O)CCCCCNC(=O)CC[C@H](NC(=O)CCCCCCCCCCCCCCCCC(=O)O)C(=O)O)C(=O)N1CCC[C@H]1C(=O)N[C@@H](CCC(=O)O)C(=O)N[C@@H](CCC(=O)O)C(=O)N[C@@H](CC(=O)O)C(=O)N[C@@H](C)C(=O)N[C@H](C(=O)N1CCC[C@H]1C(=O)N[C@@H](CCC(=O)O)C(=O)N[C@@H](CCC(=O)O)C(=O)N[C@@H](CC(C)C)C(=O)N[C@@H](CCC(N)=O)C(=O)N[C@@H](CCCNC(=N)N)C(=O)N[C@@H](Cc1ccc(O)cc1)C(=O)N[C@@H](Cc1ccc(O)cc1)C(=O)N[C@H](C(=O)N[C@@H](CO)C(=O)N[C@@H](CC(C)C)C(=O)N[C@@H](CCCNC(=N)N)C(=O)N[C@@H](Cc1c[nH]cn1)C(=O)N[C@@H](Cc1ccc(O)cc1)C(=O)N[C@@H](Cc1ccc(O)cc1)C(=O)N[C@@H](CC(N)=O)C(=O)N[C@@H](Cc1c[nH]c2ccccc12)C(=O)N[C@@H](CC(C)C)C(=O)N[C@H](C(=O)N[C@@H](CCCNC(=N)N)C(=O)N[C@@H](CCC(N)=O)C(=O)N[C@@H](CCCNC(=N)N)C(=O)N[C@@H](Cc1ccc(O)cc1)C(N)=O)[C@@H](C)O)C(C)C)[C@@H](C)O [Compound 173, N{alpha-4}-(3-methylbutanoyl)-N{epsilon-7}-(6-[(4S)-4-carboxy-4-(17-carboxyheptadecanamido)butanamido]hexanoyl)-[4A,7K,9E,13T,18Q,22V,28Y,30W,31L]-hPYY(4-36)] | 9.2 | 9.6 | 4.07
4 | CC(C)CC(=O)N[C@@H](C)C(=O)N1CCC[C@H]1C(=O)N[C@@H](CCC(=O)O)C(=O)N[C@@H](CCCCNC(=O)CCCCCNC(=O)CC[C@H](NC(=O)CCCCCCCCCCCCCCCCC(=O)O)C(=O)O)C(=O)N1CCC[C@H]1C(=O)NCC(=O)N[C@@H](C)C(=O)N[C@@H](CC(=O)O)C(=O)N[C@@H](C)C(=O)N[C@@H](CO)C(=O)N1CCC[C@H]1C(=O)N[C@@H](CCC(=O)O)C(=O)N[C@@H](CCCCN)C(=O)N[C@@H](CC(C)C)C(=O)N[C@@H](CCC(N)=O)C(=O)N[C@@H](CCCNC(=N)N)C(=O)N[C@@H](Cc1ccc(O)cc1)C(=O)N[C@@H](Cc1ccc(O)cc1)C(=O)N[C@H](C(=O)N[C@@H](CO)C(=O)N[C@@H](CC(C)C)C(=O)N[C@@H](CCCNC(=N)N)C(=O)N[C@@H](Cc1c[nH]cn1)C(=O)N[C@@H](Cc1ccc(O)cc1)C(=O)N[C@@H](Cc1ccc(O)cc1)C(=O)N[C@@H](Cc1c[nH]cn1)C(=O)N[C@@H](CCCCN)C(=O)N[C@@H](CC(C)C)C(=O)N[C@H](C(=O)N[C@@H](CCCNC(=N)N)C(=O)N[C@@H](CCC(N)=O)C(=O)N[C@@H](CCCNC(=N)N)C(=O)N[C@@H](Cc1ccc(O)cc1)C(N)=O)[C@@H](C)O)C(C)C [Compound 174, N{alpha-4}-(3-methylbutanoyl)-N{epsilon-7}-(6-[(4S)-4-carboxy-4-(17-carboxyheptadecanamido)butanamido]hexanoyl)-[4A,7K,10A,16K,18Q,22V,28Y,29H,30K,31L]-hPYY(4-36)] (Isovaleryl-APEK([Ahx-γGlu-C18 diacid])PGADASPEKLQRYYVSLRHYYHKLTRQRY-NH2) | 3.1 | 1.2 | 0.21
